Measured values as given in patent US7563787B2, “Substituted pyrazole compounds” (Miikana Therapeutics, Inc., priority 2005, dated 2009).

Experiments:
ABL1 E255K = biological target: T1, ABL1 E255K (Homo sapiens, UniProt P00519, E255K); assay: Kinase Selectivity Assay; type: biochemical; details: read-out: Percent Inhibition at 1 μM
T1 construct: purchased Invitrogen, Carlsbad, Calif
Procedure: (§1) Compounds were assayed for inhibitory activity against a panel of different kinase enzymes at a concentration of 1 μM. Where appropriate, full-length enzymes or catalytically active fragments, with N-terminal or C-terminal His- or GST-tags, were used (Invitrogen, Carlsbad, Calif.). Test compounds were initially diluted to 100× test concentration in 100% DMSO. This 100× concentration was then diluted to a 4× working concentration in Kinase Buffer (50 mM HEPES pH 7.5, 0.01% Brij-35, 10 mM MgCl2, 1 mM EGTA) and 2.5 μL was then added to a low volume NBS, 384-well plate (Corning, Corning, N.Y.). Five μL of a 2× peptide/kinase mixture (Invitrogen, Carlsbad, Calif.), as appropriate (listed in Table 3), was then added and the reaction was then initiated by addition of 2.5 μL of a 4× working concentration of ATP in Kinase Buffer.

SYK = biological target: T2, SYK (Homo sapiens, UniProt P43405); assay: Kinase Selectivity Assay; type: biochemical; details: read-out: Percent Inhibition at 1 μM
T2 construct: purchased Invitrogen, Carlsbad, Calif
Procedure: as §1

SRC = SRC (Homo sapiens, UniProt P12931); assay: Kinase Selectivity Assay; type: biochemical; design: full-length enzymes or catalytically active fragments; purchased Invitrogen; details: read-out: Percent Inhibition at 1 μM
SRC, sequence (P12931 whole entry, the tested form may be a part): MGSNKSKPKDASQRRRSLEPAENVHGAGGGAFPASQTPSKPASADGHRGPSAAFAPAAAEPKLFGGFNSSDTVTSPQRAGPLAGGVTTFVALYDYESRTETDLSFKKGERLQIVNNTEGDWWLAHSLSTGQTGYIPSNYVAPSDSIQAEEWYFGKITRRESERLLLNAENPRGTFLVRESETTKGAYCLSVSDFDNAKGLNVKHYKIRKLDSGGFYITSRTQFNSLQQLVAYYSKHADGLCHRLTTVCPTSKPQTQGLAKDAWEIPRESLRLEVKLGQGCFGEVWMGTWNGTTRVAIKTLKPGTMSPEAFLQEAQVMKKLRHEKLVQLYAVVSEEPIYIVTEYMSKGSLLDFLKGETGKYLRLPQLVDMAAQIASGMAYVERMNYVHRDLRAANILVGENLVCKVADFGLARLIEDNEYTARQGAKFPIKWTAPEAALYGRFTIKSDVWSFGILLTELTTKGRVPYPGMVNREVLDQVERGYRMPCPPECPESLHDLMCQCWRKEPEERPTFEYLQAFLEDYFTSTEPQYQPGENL
Procedure: as §1

Aurora B kinase = biological target: T3, Aurora B kinase (Homo sapiens, UniProt Q96GD4); assay: Aurora B (Aurora 1) Inhibition Assay; type: biochemical; details: 100 μM compound; ATP 50 μM; 16 h
T3 construct: purchased BPS Biosciences, San Diego, Calif
T3 sequence (Q96GD4 whole entry): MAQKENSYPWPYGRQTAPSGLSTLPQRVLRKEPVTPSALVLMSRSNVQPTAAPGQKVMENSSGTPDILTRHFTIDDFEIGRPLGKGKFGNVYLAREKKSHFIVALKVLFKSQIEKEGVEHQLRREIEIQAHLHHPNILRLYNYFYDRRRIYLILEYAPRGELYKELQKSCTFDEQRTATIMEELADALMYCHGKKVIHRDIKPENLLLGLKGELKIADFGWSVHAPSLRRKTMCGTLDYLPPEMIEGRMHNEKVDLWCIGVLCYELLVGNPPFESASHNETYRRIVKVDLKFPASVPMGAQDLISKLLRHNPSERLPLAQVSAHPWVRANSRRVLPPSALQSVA
Procedure: Assays for Aurora B kinase inhibition were carried out similarly to those for Aurora A kinase (see above) with the following modifications. Aurora B kinase (BPS Biosciences, San Diego, Calif.) was used as the enzyme, at a concentration was 2.5 μg/mL. The ATP concentration was 50 μM, and the kinase reaction was allowed to proceed for 16 h. Sodium orthovanadate (20 μM) was added to the buffer to inhibit contaminating phosphatases.

HCT-116 cell growth = assay: Whole Cell Cytotoxicity Assay: Sulforhodamine B; type: cell-based, Human; details: Homo sapiens, HCT-116; 100 μM compound; 96 hours; SRB staining
Procedure: Human tumor-derived cell lines, HCT116 or MCF7 (ATCC) were plated in a 96 well plate in DMEM containing 10% fetal bovine serum and 2 mM L-glutamine at a density of 500 HCT116 cells or 1,000 MCF7 cells per well and incubated at 37° C., 5% CO2, for 24 hours prior to the addition of experimental compounds. Compounds were added using the dilution series indicated to duplicate plates and the cells were incubated in media plus compound for 96 hours. An additional plate was fixed in 10% TCA at the time of the addition of compound to provide a measurement of the cell population at time zero, the time of drug addition. Following the 96 hour incubation, cells were fixed in situ by gently aspirating off the culture media and then adding 50 ul of ice cold 10% TCA per well and incubation at 4° C. for 60 minutes. The plates were washed with tap water five times and allowed to air dry for 5 minute. 50 ul of a 0.4% (w/v) Sulforhodamine B solution in 1% (v/v) acetic acid was added per well and the cells were incubated for 30 minutes at room temperature. Following staining, plates were washed four times with 1% acetic acid to remove any unbound dye and then allowed to air dry for 5 minutes. The stain was solubilized with 100 ul of 10 mM Tris pH 10.5 per well and placed on an orbital rotator for 5 minutes. The absorbance was read at 570 nm. Percentage growth was calculated using the absorbance readings from the time zero plate (Tz) and the dilution series plate […] which included a column of cells grown in media without compound as a control (C) using the formulas: [(Ti−Tz)/(C−Tz)]×100 for concentrations for which Ti>/=Tz [(Ti−Tz)/Tz]×100 for concentrations for which Ti<Tz.
Three dose response parameters were calculated for each experimental agent. Growth inhibition of 50% (GI50) was calculated from [(Ti−Tz)/(C−Tz)]×100=50, which was the drug concentration resulting in a 50% reduction in the net protein increase (as measured by SRB staining) in control cells during the drug incubation. The drug concentration resulting in total growth inhibition (TGI) was calculated from Ti=Tz. The LC50 (concentration of drug resulting in a 50% reduction in the measured protein at the end of the drug treatment as compared to that at the beginning) indicating a net loss of cells following treatment was calculated from [(Ti−Tz)/Tz]×100=−50. Values are calculated for each of these three parameters if the level of activity was reached; however, if the effect was not reached or was exceeded, the value for that parameter is expressed as greater or less than the maximum or minimum concentration tested.

recombinant Aurora A = biological target: T4, recombinant Aurora A (Homo sapiens, UniProt O14965); assay: Aurora A (Aurora 2) Inhibition Assay (Z'-Lyte); type: biochemical; details: 100 μM compound; ATP 10 μM; 1 h
T4 construct: purchased Upstate, Lake Placid, N.Y
T4 sequence (O14965 1-403): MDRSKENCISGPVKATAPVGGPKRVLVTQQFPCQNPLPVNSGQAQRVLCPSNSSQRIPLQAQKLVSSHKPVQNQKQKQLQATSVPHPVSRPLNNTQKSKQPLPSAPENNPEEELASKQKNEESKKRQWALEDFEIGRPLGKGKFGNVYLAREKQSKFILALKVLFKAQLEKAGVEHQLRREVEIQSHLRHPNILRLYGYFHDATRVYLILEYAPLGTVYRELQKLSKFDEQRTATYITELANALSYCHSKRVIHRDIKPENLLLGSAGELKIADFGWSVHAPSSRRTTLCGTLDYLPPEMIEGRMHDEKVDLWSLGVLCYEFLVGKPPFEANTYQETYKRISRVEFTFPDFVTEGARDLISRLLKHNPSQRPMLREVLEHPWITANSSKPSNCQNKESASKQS
Procedure: Compounds were tested for their potency against recombinant Aurora A (Upstate, Lake Placid, N.Y.) using the PanVera Z'-Lyte kinase assay kit-Ser/[…] peptide (Invitrogen, Carlsbad, Calif.). […] Assays were carried out in half-area 96-well white polystyrene assay plates (Corning, Corning, N.Y.) in a final volume of 20 μl. The reaction was allowed to proceed for 1 h at room temperature in the dark, at which point the development reagent and stop reagent were added according to the manufacturer's instructions. Coumarin (Ex. 400 nm, Em. 465 nm) and fluorescein (Ex. 400 nm, Em. 565 nm) fluorescence values were measured on a SpectraFluor Plus plate reader (Tecan, Durham, N.C.). The emission ratio (coumarin/fluorescein) was determined and used to calculate the percent phosphorylation for each well. […] Typically 20-40% of the substrate was phosphorylated in wells without inhibitor. Dose-response curves of relative Aurora A activity vs. inhibitor concentration were plotted with Grafit (Erithacus Software, Horley, Surrey, UK).

[1] = biological target: T5, recombinant human Flt3, residues 564-end (Homo sapiens, UniProt P36888); assay: Flt3 Kinase Inhibition Assay; type: biochemical; details: read-out: inhibition of Flt3 at a concentration of 1 μM; 1 μM compound; 33P-ATP filter assay
T5 construct: recombinant human Flt3, residues 564-end; GST (N); purchased Upstate USA Inc, Charlottesville, Va
T5 sequence (P36888 564-993 limits assumed): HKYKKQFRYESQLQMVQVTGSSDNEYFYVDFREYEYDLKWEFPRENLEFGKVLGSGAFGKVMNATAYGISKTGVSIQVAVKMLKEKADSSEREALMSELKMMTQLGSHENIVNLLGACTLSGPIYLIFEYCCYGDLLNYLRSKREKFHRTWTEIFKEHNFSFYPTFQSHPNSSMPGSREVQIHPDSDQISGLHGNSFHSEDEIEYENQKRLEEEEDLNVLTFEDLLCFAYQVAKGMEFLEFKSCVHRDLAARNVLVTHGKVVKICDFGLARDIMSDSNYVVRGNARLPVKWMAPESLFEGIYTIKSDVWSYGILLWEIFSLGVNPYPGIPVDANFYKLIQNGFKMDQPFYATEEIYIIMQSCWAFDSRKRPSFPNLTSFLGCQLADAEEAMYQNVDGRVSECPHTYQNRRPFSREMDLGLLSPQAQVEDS
Procedure: Compounds were assayed for Flt3 kinase inhibitory activity using N-terminal GST-tagged recombinant human Flt3, residues 564-end (Upstate USA Inc, 706 Forest Street, Charlottesville, Va.). Serial dilutions of compound were assayed in a final reaction volume of 25 μL by incubating a solution of the above Flt3 kinase (5-10 mU), 8 mM MOPS (3-(N-morpholino) propanesulfonic acid) pH 7.0, 0.2 mM EDTA (ethylenediamine tetracetic acid), 50 μM amino acid sequence [sequence] (SEQ ID NO: 1)(Upstate USA Inc, 706 Forest Street, Charlottesville, Va.), and 10 mM magnesium acetate and [γ-^33P-ATP] (specific activity of about 500 cpm/pmol, concentration as required). The reaction was initiated by the addition of the magnesium acetate and [γ-^33P-ATP] mixture. After incubation for 40 minutes at room temperature, the reaction was stopped bythe addition of 5 μL of a 3% phosphoric acid solution. A 10 μL aliquote of the reaction was then spotted onto a P30 filtermat (PerkinElmer, Wellesley, Mass.) and washed three times for five minutes in 75 mM phosphoric acid and once in methanol prior to drying and scintillation counting. Inhibition of Flt3 activity was determined by comparison to assays that contained no inhibitor.

T1 sequence (P00519 whole entry E255K): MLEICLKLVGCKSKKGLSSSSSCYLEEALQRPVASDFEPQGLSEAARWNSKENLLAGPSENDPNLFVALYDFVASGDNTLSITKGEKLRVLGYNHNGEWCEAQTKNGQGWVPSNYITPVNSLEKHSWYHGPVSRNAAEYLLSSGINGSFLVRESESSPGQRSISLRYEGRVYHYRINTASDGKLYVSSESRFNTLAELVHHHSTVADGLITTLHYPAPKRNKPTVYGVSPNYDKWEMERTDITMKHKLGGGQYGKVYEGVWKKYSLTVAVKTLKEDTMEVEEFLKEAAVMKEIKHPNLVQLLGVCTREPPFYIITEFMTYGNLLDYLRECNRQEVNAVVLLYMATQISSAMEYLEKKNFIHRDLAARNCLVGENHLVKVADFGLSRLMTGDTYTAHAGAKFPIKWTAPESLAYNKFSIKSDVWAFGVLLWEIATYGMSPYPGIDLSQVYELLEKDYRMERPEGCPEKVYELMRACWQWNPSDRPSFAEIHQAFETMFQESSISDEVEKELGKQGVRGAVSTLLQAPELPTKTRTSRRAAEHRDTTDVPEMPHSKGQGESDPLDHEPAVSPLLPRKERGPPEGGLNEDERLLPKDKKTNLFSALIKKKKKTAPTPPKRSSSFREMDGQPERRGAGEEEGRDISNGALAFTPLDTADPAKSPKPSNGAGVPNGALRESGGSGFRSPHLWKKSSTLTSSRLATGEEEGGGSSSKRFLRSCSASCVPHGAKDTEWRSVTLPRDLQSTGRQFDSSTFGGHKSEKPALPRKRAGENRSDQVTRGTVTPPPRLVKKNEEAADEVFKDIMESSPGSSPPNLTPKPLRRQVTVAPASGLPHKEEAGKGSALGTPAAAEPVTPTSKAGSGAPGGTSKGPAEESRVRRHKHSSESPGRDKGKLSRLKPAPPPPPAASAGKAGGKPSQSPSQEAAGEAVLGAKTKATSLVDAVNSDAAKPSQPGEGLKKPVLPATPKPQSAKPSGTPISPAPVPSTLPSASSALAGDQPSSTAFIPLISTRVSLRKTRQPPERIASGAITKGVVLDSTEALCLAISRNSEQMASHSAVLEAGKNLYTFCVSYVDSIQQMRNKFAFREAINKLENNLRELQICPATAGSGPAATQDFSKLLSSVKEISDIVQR

| SMILES | inhibition at 1 µM (ABL1 E255K) [%] | inhibition at 1 µM (SYK) [%] | inhibition at 1 µM (SRC) [%] | inhibition at 100 µM (Aurora B kinase) [%] | inhibition at 100 µM (HCT-116 cell growth) [%] | inhibition at 100 µM (recombinant Aurora A) [%] | inhibition at 1 µM [1] [%] |
| --- | --- | --- | --- | --- | --- | --- | --- |
| Cc1cc(Nc2nc(/C=C/c3ccccc3)nc(N3CCN(C)CC3)c2N)[nH]n1 [Example 10, 6-(4-methylpiperazin-1-yl)-N-(3-methyl-1H-pyrazol-5-yl)-2-[(E)-2-phenylvinyl]pyrimidin-4,5-diamine] | 53 | 88 | 85 | 97 | 99 | 100 | – |
| Cc1cc(Nc2cc(N3CCN(C)CC3)nc(/C=C/c3ccccc3)n2)n[nH]1 [Example 31, 6-(4-methylpiperazin-1-yl)-N-(3-methyl-1H-pyrazol-5-yl)-2-[(E)-2-phenylvinyl]pyrimidin-4-amine] | – | – | 96 | 100 | 99 | 100 | ~96 |
